{
  "source": "paper PMC10313368",
  "about": "(The Journal of Clinical Investigation, 2023)",
  "key": {"HIF-1α [1]": {"target": "T1, HIF-1α (Homo sapiens, UniProt Q16665)", "T1 sequence (Q16665 whole entry)": "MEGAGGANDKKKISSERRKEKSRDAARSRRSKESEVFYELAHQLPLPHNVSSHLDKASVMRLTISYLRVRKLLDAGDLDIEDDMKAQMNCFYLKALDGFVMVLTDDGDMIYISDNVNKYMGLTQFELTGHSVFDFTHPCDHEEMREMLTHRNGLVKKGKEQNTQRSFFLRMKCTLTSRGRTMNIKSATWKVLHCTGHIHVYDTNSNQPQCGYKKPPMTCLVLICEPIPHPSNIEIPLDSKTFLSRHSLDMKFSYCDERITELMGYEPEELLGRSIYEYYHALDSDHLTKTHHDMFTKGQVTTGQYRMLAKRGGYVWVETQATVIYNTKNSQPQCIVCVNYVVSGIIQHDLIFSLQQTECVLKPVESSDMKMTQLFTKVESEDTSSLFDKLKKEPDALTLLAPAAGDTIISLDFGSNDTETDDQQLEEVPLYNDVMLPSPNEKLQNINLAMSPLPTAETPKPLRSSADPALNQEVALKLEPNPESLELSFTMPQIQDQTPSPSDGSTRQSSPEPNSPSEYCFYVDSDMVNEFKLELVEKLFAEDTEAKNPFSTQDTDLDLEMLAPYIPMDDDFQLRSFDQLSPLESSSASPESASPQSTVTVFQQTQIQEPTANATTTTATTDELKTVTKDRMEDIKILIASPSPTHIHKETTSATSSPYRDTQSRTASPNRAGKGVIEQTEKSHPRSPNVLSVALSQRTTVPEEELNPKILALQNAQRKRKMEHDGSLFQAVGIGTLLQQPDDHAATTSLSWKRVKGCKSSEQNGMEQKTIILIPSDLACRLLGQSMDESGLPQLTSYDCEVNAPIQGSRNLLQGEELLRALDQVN", "assay": "Immunoblot of HIF-1α accumulation in MIO-M1 cells cultured in hypoxia", "format": "cell-based", "design": "endogenous in cells; host or cells: MIO-M1", "description": "MIO-M1, HUVECs, and ARPE19 cells were cultured in DMEM with 10% (vol/vol) FBS (Quality Biological) and 1% penicillin/streptomycin (Cellgro). A hypoxic chamber (Coy Laboratory Product Inc.; Two Glove Model) with 5% CO2, 94% N2, and 1% O2 gas concentration at 37°C was used to culture hypoxic cells. The control cells were cultured in an incubator maintained at 37°C, with 21% O2 and 5% CO2. […] Aflibercept was obtained from the Johns Hopkins University Pharmacy.\n(§1) Immunoblot assays. Cells, neurosensory retina, and D120 retinal organoid lysates were subjected\n(§2) to 4–15% gradient SDS/PAGE (Invitrogen). Immunoblot (Western blot or WB) assays were\n(§3) performed as previously described (1). […]"}, "adult mice": {"test_system": "adult mice", "conditions": "i.p. 5 consecutive days, doses up to 80 mg/kg; cited from earlier work"}, "[2]": {"test_system": "STZ-induced diabetic mice", "assay": "Vascular permeability by Evans blue tracer method in STZ mice", "format": "in vivo, mouse", "conditions": "single intraocular injection 70 ng 32-134D", "description": "STZ-induced diabetes mouse model. 8-to-10 week-old male mice received an IP injection of STZ at 40 mg/kg of body weight in 0.1M of citrate buffer (pH 4.5) for 5 consecutive days. Normal chow and 10% sucrose water were provided during this period. 10% sucrose was discontinued and replaced with regular water on experimental day 6. […]\nIntraocular injections. Intravitreal injections were performed with a PLI-100A Pico-liter Microinjector (Warner Instruments, Harvard Bioscience) using pulled-glass micropipettes. Each micropipette was calibrated to deliver a 1 μl volume on depression of a foot switch. […]\nImages were captured with Zeiss fluorescent microscope. Eight fields per eye (2 fields per petal) including area of neovascularization were selected and fluorescence intensity was measured by ImageJ software. […]\nThe eyes were enucleated and immediately immersed in 4% (wt/vol) paraformaldehyde for 2 hours at room temperature. […] Images were captured by Zeiss fluorescent microscope or confocal microscopy and fluorescence was quantified by the image J software (National Institutes […]\nof Health, Bethesda, MD). Blinded quantification of the number of leaking vessels was performed by manual counting of major leakage from capillaries from retinas of each group. […] Random fields were chosen from retinas where leakages were absent to determine baseline fluorescence that arise from capillaries. […]"}, "[3]": {"test_system": "retinal ganglion cells (RGCs)", "assay": "Retinal histology (H&E), RBPMS staining and quantitation of RGCs, ONL/INL thickness after intraocular injection", "format": "in vivo, mouse"}, "HIF-1α [4]": {"target": "T1, HIF-1α", "assay": "Immunoblot of HIF-1α accumulation in D120 hiPSC-derived retinal organoids in 1% O2", "format": "cell-based", "design": "endogenous in cells", "conditions": "1% O2 12 hours, 32-134D", "description": "An hiPSC line derived from CD34^+ cord blood was used in this study (A18945, Thermo Fisher Scientific) ([70]). Undifferentiated hiPSCs and derived retinal organoids were routinely tested for mycoplasma contamination by PCR. Cell culture, retinal differentiation, and organoid formation were conducted as previously described ([71]). Retinal organoids at D120 were used for experiments.\nas §1, §2, §3"}, "HUVECs": {"test_system": "HUVECs", "assay": "qPCR of VEGF, ANGPTL4, ANGPT2, PTPRB, SERPINE1 mRNA in hypoxic HUVECs", "format": "cell-based, human", "conditions": "for Angptl4 mRNA / Vegfa mRNA: HUVEC 16HRS, Figure 8D; for Angptl4 mRNA / Vegfa mRNA / Angpt2 mRNA / Ptprb mRNA / Serpine1 mRNA: replicates; for Angpt2 mRNA / Ptprb mRNA / Serpine1 mRNA: HUVEC, Figure 8E", "description": "MIO-M1, HUVECs, and ARPE19 cells were cultured in DMEM with 10% (vol/vol) FBS (Quality Biological) and 1% penicillin/streptomycin (Cellgro). A hypoxic chamber (Coy Laboratory Product Inc.; Two Glove Model) with 5% CO2, 94% N2, and 1% O2 gas concentration at 37°C was used to culture hypoxic cells. The control cells were cultured in an incubator maintained at 37°C, with 21% O2 and 5% CO2. […] Aflibercept was obtained from the Johns Hopkins University Pharmacy. […]\nReverse transcription and quantitative real-time PCR. Total RNA was isolated from cultured cells or retinas with PureLinkTM RNA Mini Kit (Invitrogen #12183025), and cDNA was prepared with MuLV Reverse Transcriptase (Applied Biosystems). Quantitative real-time PCR was performed with Power SYBR Green PCR Master Mix (Applied Biosystems) and MyiQ Real-Time PCR Detection System (Bio-Rad). Normalization was done using cyclophilin A for mouse tissue and human cell lines. Primers are listed in Supplemental Table 2. […]"}, "[5]": {"conditions": "HUVECs, hypoxia 16 hours, 32-134D 10 μM"}},
  "note": "Several values for one entry are separate records, joined by “and”; a condition that tells them apart may be missing. Identical values can stand only once.",
  "data": [
    {"smiles": "Brc1ccc2c(-c3csc(-c4c[nH]c5c(Br)cccc45)n3)c[nH]c2c1", "note": "[32-134D, 4-(6-bromo-1H-indol-3-yl)-2-(7-bromo-1H-indol-3-yl)thiazole]", "values": [
      {"measurement": "HIF-1α protein accumulation in response to hypoxia", "setting": "HIF-1α [1]; MIO-M1, 1 μM 32-134D, 1% O2 4 hours", "result": "decreased"},
      {"measurement": "persistence of effect on HIF-1α accumulation after treatment", "setting": "HIF-1α [1]; MIO-M1, 10 μM, hypoxia 1 to 24 hours", "result": "up to 16 hours"},
      {"measurement": "IC50", "setting": "HIF-1α [1]; MIO-M1 cells cultured in hypoxia, read-out: IC50, HIF-1α protein accumulation (quantitation of immunoblots)", "result": 3.5, "unit": "µM"},
      {"measurement": "systemic tolerability (appearance, behavior, body weight, hemoglobin, hematocrit)", "setting": "adult mice", "result": "well tolerated"},
      {"measurement": "vascular hyperpermeability in STZ mice (in words)", "setting": "[2]", "result": "effectively inhibited vascular hyperpermeability"},
      {"measurement": "retinal histology including GCL", "setting": "[3]; 32-134D 210 or 350 ng intraocular, 35 days", "result": "normal histology"},
      {"measurement": "number of RGCs on retinal flat mounts (in words)", "setting": "[3]; 32-134D at the highest doses tested, 35 days", "result": "unaffected"},
      {"measurement": "ONL or INL thickness versus vehicle (in words)", "setting": "[3]; 32-134D single dose 350 ng, 5 weeks", "result": "failed to demonstrate any changes"},
      {"measurement": "therapeutic window following intraocular administration", "setting": "[3]; 32-134D, mice", "result": "wide therapeutic window"},
      {"measurement": "accumulation of HIF-1α protein", "setting": "HIF-1α [4]", "result": "effectively prevented accumulation"},
      {"measurement": "Angptl4 mRNA", "setting": "HUVECs; 1% O2+32-134D 1μM", "result": "23.6548 and 19.8329 and 22.215"},
      {"measurement": "Vegfa mRNA", "setting": "HUVECs; 1% O2+32-134D 1μM", "result": "3.163 and 3.148 and 2.936"},
      {"measurement": "Angptl4 mRNA", "setting": "HUVECs; 1% O2+32-134D 10μM", "result": "13.1074 and 12.3148 and 11.0174"},
      {"measurement": "Vegfa mRNA", "setting": "HUVECs; 1% O2+32-134D 10μM", "result": "2.892 and 2.5719 and 2.682"},
      {"measurement": "Angpt2 mRNA", "setting": "HUVECs; 1% O2+32-134D 1μM", "result": "1.029 and 1.541 and 1.067"},
      {"measurement": "Ptprb mRNA", "setting": "HUVECs; 1% O2+32-134D 1μM", "result": "1.641 and 1.627 and 1.638"},
      {"measurement": "Serpine1 mRNA", "setting": "HUVECs; 1% O2+32-134D 1μM", "result": "2.465 and 2.4817 and 2.486"},
      {"measurement": "Angpt2 mRNA", "setting": "HUVECs; 1% O2+32-134D 10μM", "result": "1.092 and 1.046 and 0.8708"},
      {"measurement": "Ptprb mRNA", "setting": "HUVECs; 1% O2+32-134D 10μM", "result": "1.169 and 1.1917 and 1.0627"},
      {"measurement": "Serpine1 mRNA", "setting": "HUVECs; 1% O2+32-134D 10μM", "result": "2.072 and 2.145 and 2.576"},
      {"measurement": "hypoxia-increased ANGPT2 mRNA (in words)", "setting": "HUVECs; [5]", "result": "inhibited"},
      {"measurement": "hypoxia-increased PTPRB mRNA (in words)", "setting": "HUVECs; [5]", "result": "inhibited"}
    ]}
  ]
}
